Like-named read-outs stand apart in the source and are kept apart here.

This is an account of results in PMC3407089, “Influence of GABAA Receptor α Subunit Isoforms on the Benzodiazepine Binding Site” (PLoS ONE, 2012).

The target in assay [1] is T1, α1S205Cβ2γ2 GABAA receptor (Rattus norvegicus, UniProt P18508+P62813, S232C). Set-up: method as in PMID 19804380. As to conditions: 10 µM 3-NCS; cited from earlier work.
The target of assay [2] is T2, α1T206Cβ2γ2 GABAA receptor (Rattus norvegicus, UniProt P18508+P62813, T233C). Set-up: method as in PMID 19804380. As to conditions: 10 µM 3-NCS; cited from earlier work.
T2 sequence (P62813 28-455 T233C): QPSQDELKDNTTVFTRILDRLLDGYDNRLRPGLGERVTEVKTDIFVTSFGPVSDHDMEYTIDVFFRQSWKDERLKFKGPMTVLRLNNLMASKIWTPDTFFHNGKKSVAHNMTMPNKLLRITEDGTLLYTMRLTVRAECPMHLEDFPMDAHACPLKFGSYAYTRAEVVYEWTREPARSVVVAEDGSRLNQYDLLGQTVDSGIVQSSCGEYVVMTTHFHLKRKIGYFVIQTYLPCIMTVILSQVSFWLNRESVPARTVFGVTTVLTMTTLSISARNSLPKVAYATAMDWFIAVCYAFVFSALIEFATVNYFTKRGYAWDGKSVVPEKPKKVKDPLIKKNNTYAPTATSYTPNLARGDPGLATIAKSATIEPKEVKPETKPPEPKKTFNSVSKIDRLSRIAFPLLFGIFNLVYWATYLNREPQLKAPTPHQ
T2 sequence (P18508 39-466): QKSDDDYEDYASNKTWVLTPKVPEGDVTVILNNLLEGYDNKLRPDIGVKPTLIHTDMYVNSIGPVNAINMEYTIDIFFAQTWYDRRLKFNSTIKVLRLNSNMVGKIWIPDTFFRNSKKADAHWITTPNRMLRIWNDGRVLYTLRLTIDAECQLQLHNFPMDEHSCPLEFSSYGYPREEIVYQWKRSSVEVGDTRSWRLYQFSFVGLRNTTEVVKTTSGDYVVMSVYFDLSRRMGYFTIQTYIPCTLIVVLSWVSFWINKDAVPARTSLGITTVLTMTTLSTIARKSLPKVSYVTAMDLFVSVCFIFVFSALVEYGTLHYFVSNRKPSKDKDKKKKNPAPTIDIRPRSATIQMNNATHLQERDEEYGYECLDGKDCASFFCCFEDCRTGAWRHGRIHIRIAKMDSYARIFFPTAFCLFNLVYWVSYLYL
T2 sequence (P63138 26-474 partner): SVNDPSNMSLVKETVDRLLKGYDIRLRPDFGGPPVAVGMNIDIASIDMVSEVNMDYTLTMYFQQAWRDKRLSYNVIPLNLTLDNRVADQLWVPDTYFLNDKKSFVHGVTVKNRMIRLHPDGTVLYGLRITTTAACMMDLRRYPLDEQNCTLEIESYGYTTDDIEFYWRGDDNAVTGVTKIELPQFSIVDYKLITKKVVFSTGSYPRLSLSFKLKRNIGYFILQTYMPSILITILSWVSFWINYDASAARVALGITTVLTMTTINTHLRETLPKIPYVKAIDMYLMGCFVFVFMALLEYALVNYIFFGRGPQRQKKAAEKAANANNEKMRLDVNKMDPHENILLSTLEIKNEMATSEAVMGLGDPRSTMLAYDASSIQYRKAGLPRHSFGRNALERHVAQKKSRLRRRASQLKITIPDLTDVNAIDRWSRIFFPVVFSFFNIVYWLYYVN
The test system of another assay is mutated GABAA receptors. The assay can be described thus: Time course of covalent reaction at the binding level (preliminary experiments). As to conditions: 10 µM and 1 µM 3-NCS, not shown. As to the method: (§1) As detailed in previous work, [30], [33] this procedure included three steps: incubation of membranes expressing recombinant wild type or mutant receptors with the reactive agent followed by extensive washing of the membranes in order to remove non-reacted compound and a radioactive ligand binding assay to determine residual binding. No covalent reaction would result in 100% residual binding, and 100% covalent reaction would result in 0% residual binding.
Briefly, the membranes were re-suspended in phosphate buffer (100 mM KCl, 10 mM KH2PO4, 0.1 mM EDTA, pH 7.4) using a Glass/Teflon homogenizer. 0.1–1.0 mg/mL of protein were incubated in a total volume of 360 µL with either 10 µM (determination of degree of covalent reaction) or several concentrations of 3-NCS for 30 min on ice. Membranes were collected with rapid filtration on a round 7 mm diameter glass fiber filter (GF/C; Whatman) that was placed on a round 24 mm diameter glass fiber filter (GF/C; Whatman), both pre-washed with phosphate buffer. […] Radioactivity was determined by liquid scintillation counting. Non-specific binding was determined in the presence of 100 µM Ro 15–1788. In control experiments, washing efficiency was estimated by placing radioactivity on the small filter. More than 99.95% of the radioactivity was removed (not shown).

The test system of assay [3] is α1S204Cβ2γ2 GABAA receptor. Set-up: method as in PMID 19804380. Conditions: 10 µM 3-NCS; cited from earlier work.
The target of the next assay is T3, α2β2γ2 receptors (Rattus norvegicus, UniProt P18508+P23576).
T3 construct: expressed in transfected cells; host or cells: HEK293 cells (ATCC CRL 1573), membranes
T3 sequence (P23576 29-451): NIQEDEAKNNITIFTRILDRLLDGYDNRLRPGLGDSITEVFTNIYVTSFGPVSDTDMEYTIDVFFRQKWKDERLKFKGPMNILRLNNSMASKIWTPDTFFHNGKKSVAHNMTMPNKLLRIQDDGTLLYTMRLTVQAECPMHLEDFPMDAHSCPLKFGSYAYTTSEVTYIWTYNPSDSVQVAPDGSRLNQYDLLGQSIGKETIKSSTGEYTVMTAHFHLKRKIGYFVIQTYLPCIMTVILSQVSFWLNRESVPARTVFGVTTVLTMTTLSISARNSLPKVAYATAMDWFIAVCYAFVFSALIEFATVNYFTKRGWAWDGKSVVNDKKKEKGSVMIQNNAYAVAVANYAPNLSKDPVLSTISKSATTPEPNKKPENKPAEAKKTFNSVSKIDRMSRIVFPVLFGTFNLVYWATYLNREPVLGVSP
T3 sequence (P63138 25-474 partner limits assumed): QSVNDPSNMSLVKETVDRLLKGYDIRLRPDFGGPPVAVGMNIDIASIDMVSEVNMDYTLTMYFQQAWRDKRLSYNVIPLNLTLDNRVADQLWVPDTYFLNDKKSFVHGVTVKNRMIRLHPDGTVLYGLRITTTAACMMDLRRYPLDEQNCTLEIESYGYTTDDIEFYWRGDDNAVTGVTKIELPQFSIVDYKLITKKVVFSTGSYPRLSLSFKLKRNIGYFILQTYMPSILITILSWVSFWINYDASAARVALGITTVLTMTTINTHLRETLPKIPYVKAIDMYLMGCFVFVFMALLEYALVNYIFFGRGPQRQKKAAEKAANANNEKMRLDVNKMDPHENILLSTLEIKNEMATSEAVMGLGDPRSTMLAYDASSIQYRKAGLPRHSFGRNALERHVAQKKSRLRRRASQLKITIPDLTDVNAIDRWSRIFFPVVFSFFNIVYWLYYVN
T3 sequence (P18508 39-466): as the sequence (P18508 39-466) above
The assay can be described thus: Radioactive ligand binding / displacement of [^3H]Ro 15–1788. As to the method: For α5 containing receptors β2 was replaced by β1. […] Culturing of cells and membrane preparation were done as described before.
The properties of the recombinant mutant receptors were only estimated. For this affinity estimate, membranes were re-suspended in phosphate buffer using a Teflon homogenizer. […] The final protein concentration was 0.1–1 mg of protein/ml. […] Membranes were collected by rapid vacuum filtration on GF/C filters. After three washing steps (3 sec each) with 5 ml of phosphate buffer, the filter-retained radioactivity was determined by liquid scintillation counting.

In assay [4] the target is α2S205Cβ2γ2 GABAA receptor (Rattus norvegicus, UniProt P18508+P23576, S233C). The assay can be described thus: Covalent reaction of 3-NCS at the binding level (residual radioligand binding, HEK293 membranes). As to the method:
(§2) cDNAs coding for the αx (x = 1, 2, 3, 6), β2, and γ2S subunits DNA (20 µg : 20 µg : 20 µg) per 9 cm diameter dish were transfected in human embryonic kidney (HEK) 293 cells (American Type of Culture Collection, MD, USA, CRL 1573) using the calcium phosphate precipitation technique. For α5 containing receptors β2 was replaced by β1. […] Culturing of cells and membrane preparation were done as described before.
as §1
(§3) Briefly, the membranes were re-suspended in phosphate buffer (100 mM KCl, 10 mM KH2PO4, 0.1 mM EDTA, pH 7.4) using a Glass/Teflon homogenizer. 0.1–1.0 mg/mL of protein were incubated in a total volume of 360 µL with either 10 µM (determination of degree of covalent reaction) or several concentrations of 3-NCS for 30 min on ice. Membranes were collected with rapid filtration on a round 7 mm diameter glass fiber filter (GF/C; Whatman) that was placed on a round 24 mm diameter glass fiber filter (GF/C; Whatman), both pre-washed with phosphate buffer. The reaction of 3-NCS with the receptor was stopped by washing of the filters six times with 5 mL phosphate buffer, each. The small filters with the deposited membranes were incubated in 0.12 mL phosphate buffer containing 5 nM [^3H]Ro15–1788. After 30 min the 7 mm filter was placed on a 24 mm filter and washed six times with 5 mL phosphate buffer each. Radioactivity was determined by liquid scintillation counting. Non-specific binding was determined in the presence of 100 µM Ro 15–1788. In control experiments, washing efficiency was estimated by placing radioactivity on the small filter. More than 99.95% of the radioactivity was removed (not shown).
(§4) Concentration response curves for 3-NCS were fitted with the equation C(c) = Cmax/(1+(EC50/c)), where c is the concentration of 3-NCS, EC50 the concentration of 3-NCS where half maximal covalent reaction was observed, Cmax is the maximal extent of the covalent reaction and C the measured extent of the covalent reaction.

Assay [5] addresses α2T206Cβ2γ2 GABAA receptor (Rattus norvegicus, UniProt P18508+P23576, T234C). The description is as above. As for the experimental part:
as §2, §1, §3, §4

For assay [6], the target named is T1, α1S205Cβ2γ2 GABAA receptor. The assay is described as above. Conditions: 3-NCS 30 min on ice, washed; residual [^3H]Ro15–1788 binding. As to the method:
as §2, §1, §3, §4

Assay [7] addresses α2S204Cβ2γ2 GABAA receptor (Rattus norvegicus, UniProt P18508+P23576, S232C). The assay is described as above. As for the experimental part:
as §2, §1, §3, §4

Assay [8] concerns the target α5T210Cβ1γ2 GABAA receptor (Rattus norvegicus, UniProt P18508+P19969, T241C). The description is as above. As to the method: as §2, §1, §3, §4
Assay [9] has as its target T2, α1T206Cβ2γ2 GABAA receptor. The description is as above. Conditions: 3-NCS 30 min on ice, washed; residual [^3H]Ro15–1788 binding. As for the experimental part:
as §2, §1, §3, §4

Assay [10] concerns the target α5S209Cβ1γ2 GABAA receptor (Rattus norvegicus, UniProt P18508+P19969, S240C). The assay is described as above. As to the method:
as §2, §1, §3, §4

The target of assay [11] is wild-type α1β2γ2 receptors. Details: method as in PMID 19804380. As to conditions: cited from earlier work.
Where [12] appears, read: 3-NCS 30 min on ice, washed, residual [^3H]Ro15–1788 binding.
The mark [13] stands for this setting: 0.5 h, 10 µM 3-NCS, mutation homologous to α1S205, n = 3, read-out: Extent of covalent reaction (100% minus % residual binding).
[14] abbreviates: 0.5 h, 10 µM 3-NCS, mutation homologous to α1T206, n = 3, read-out: Extent of covalent reaction (100% minus % residual binding).

Chain of α5S209Cβ1γ2 GABAA receptor (P19969 26-464 S240C): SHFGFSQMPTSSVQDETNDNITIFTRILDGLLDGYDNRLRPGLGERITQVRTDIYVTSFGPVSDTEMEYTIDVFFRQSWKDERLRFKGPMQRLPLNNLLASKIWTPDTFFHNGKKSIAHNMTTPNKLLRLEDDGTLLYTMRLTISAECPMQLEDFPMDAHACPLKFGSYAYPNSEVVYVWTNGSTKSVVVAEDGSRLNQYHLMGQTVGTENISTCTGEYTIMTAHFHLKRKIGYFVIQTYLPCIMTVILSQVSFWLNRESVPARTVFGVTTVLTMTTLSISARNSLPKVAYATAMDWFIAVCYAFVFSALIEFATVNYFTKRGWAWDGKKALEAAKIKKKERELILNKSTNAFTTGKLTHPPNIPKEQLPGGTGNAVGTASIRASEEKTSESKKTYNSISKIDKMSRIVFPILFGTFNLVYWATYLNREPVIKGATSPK
Chain of α5S209Cβ1γ2 GABAA receptor (P18508 39-466, stated change not applied): as the sequence (P18508 39-466) above
Chain of α5S209Cβ1γ2 GABAA receptor (P15431 26-474 partner): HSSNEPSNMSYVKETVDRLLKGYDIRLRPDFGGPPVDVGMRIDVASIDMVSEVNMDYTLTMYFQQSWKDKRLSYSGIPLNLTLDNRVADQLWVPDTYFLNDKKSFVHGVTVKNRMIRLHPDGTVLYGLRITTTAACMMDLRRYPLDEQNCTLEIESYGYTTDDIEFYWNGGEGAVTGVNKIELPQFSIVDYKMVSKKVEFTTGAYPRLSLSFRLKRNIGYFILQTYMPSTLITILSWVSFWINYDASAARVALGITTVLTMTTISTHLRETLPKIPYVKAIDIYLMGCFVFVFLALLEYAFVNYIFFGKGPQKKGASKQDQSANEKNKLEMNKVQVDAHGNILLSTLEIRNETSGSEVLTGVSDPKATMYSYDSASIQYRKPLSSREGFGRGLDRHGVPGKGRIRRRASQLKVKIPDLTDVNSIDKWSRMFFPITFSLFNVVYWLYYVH
Chain of α2S204Cβ2γ2 GABAA receptor (P23576 29-451 S232C): as the sequence (P23576 29-451) above, with S204C counted along it
Chain of α2S204Cβ2γ2 GABAA receptor (P18508 39-466): as the sequence (P18508 39-466) above
Chain of α2S204Cβ2γ2 GABAA receptor (P63138 26-474 partner): as the sequence (P63138 26-474 partner) above
T1 sequence (P62813 28-455 S232C): as the sequence (P62813 28-455 T233C) above, with S205C, C206T counted along it
T1 sequence (P18508 39-466): as the sequence (P18508 39-466) above
T1 sequence (P63138 26-474 partner): as the sequence (P63138 26-474 partner) above
Chain of α5T210Cβ1γ2 GABAA receptor (P19969 26-464 T241C): as the sequence (P19969 26-464 S240C) above, with C215S, T216C counted along it
Chain of α5T210Cβ1γ2 GABAA receptor (P18508 39-466): as the sequence (P18508 39-466) above
Chain of α5T210Cβ1γ2 GABAA receptor (P15431 26-474 partner): as the sequence (P15431 26-474 partner) above
Chain of α2S205Cβ2γ2 GABAA receptor (P23576 29-451 S233C): as the sequence (P23576 29-451) above, with S205C counted along it
Chain of α2S205Cβ2γ2 GABAA receptor (P18508 39-466, stated change not applied): as the sequence (P18508 39-466) above
Chain of α2S205Cβ2γ2 GABAA receptor (P63138 26-474 partner): as the sequence (P63138 26-474 partner) above
Chain of α2T206Cβ2γ2 GABAA receptor (P23576 29-451 T234C): as the sequence (P23576 29-451) above, with T206C counted along it
Chain of α2T206Cβ2γ2 GABAA receptor (P18508 39-466): as the sequence (P18508 39-466) above
Chain of α2T206Cβ2γ2 GABAA receptor (P63138 26-474 partner): as the sequence (P63138 26-474 partner) above

In the case of `CN1C(=O)C(N=C=S)N=C(c2ccccc2)c2cc([N+](=O)[O-])ccc21` (stereo not shown) [3-NCS], the figures for the “Covalent reaction with 3-NCS (in words)” value in assay [1], in assay [2] and in assay [3] were “resulted in covalent reaction”, “resulted in covalent reaction” and “did not covalently react”, respectively. In addition, the “Time to maximum of covalent reaction” value in the assay on mutated GABAA receptors is no more than 15 s. Also, the Ki (as a rule, the dissociation constant of the complex between target and ligand, obtained from inhibition or displacement) is 1.55 ± 0.25 µM on α2β2γ2 receptors; 0.34 ± 0.016 µM in assay [11] (radioligand [^3H]Ro15–1788, read-out: Ki, displacement of [^3H]Ro15–1788); 0.24 ± 0.055 µM in assay [11] (radioligand [^3H]flunitrazepam, read-out: Ki, displacement of [^3H]flunitrazepam). The EC50 – broadly, the midpoint of the concentration-response curve – in assay [4] (setting [12]) was 6.6 ± 5.4 µM; in assay [5] (setting [12]), 0.19 ± 0.056 µM; in [6], 0.63 ± 0.18 µM; in assay [7] (setting [12]), 3.2 ± 2.3 µM; in assay [8] (setting [12]) it was 0.45 ± 0.15 µM; in assay [9], 0.082 ± 0.028 µM. Also, the response in assay [10] (setting [12]) was half-maximal at 4.1 ± 2.2 µM (EC50). Further, the inhibition at 10 µM came out at 39% in assay [4] (setting [13]); 54% in assay [5] (setting [14]); 52% in [7] (0.5 h, 10 µM 3-NCS, mutation homologous to α1S204, n = 3, read-out: Extent of covalent reaction (100% minus % residual binding)); 73% in assay [8] (setting [14]); 54% in assay [10] (setting [13]).
